Source: US8629242B2, “Methods of inhibiting calcineurin with ApoE analogs” (Cognosci, Inc., priority 2007, dated 2014)
Where a SMILES comes first, the peptide text is derived from it. [ ]: non-standard residue; d: D form. Aib = CC(C)(N)C(=O)O

Experiments:
[1] = test system: myelin oligodendrocyte glycoprotein (MOG)-induced experimental autoimmune encephalomyelitis (EAE) model; assay: MOG-induced EAE model of multiple sclerosis, treatment after disease onset; assay type: in vivo, C57BL/6J mice; conditions: for maximal severity of disability / progress of the disease (clinical score) / mice exhibiting complete remission: 1 mg/kg i.p. daily from first CS≥2; for burden of disability (area under curve of clinical score): 1 mg/kg i.p., data not shown; for demyelination and infiltration of peripheral mononuclear cells in spinal cord: Luxol Fast Blue and eosin staining; for mice exhibiting complete remission: dpi 35, saline control 22%
Experimental: FIG. 1. […] (B) Percentage of animals in remission. Statistical analysis was conducted by ANOVA comparing the CS after day 18, which was defined as the recovery phase. FIG. 2. Representative histopathology of EAE in mice treated with COG 112 or saline control. 5 μm thick sections were stained with Luxol fast blue and eosin to reveal demyelination and peripheral infiltrates. The left panels show the pathological changes in spinal cord from cervical (A), thoracic (B) and lumbar (C) segments of a saline-treated control animal. Demyelination is shown as loss of blue staining in white matter and peripheral infiltrates are stained with purple particles. Panels D, E and F show the corresponding segments of a COG 112-treated animal where no obvious demyelination is observed. The boxed-insets of panel A and D are magnified 10× in panel G and H, respectively. FIG. 3. Profiling and quantification of T cell subset infiltrates in the spinal cords of animals on 21 days post-immunization that were treated with or without COG 112. Single-cell suspensions of spinal cord were stained with anti-CD3, CD4, and CD8 mAbs. Frequency of CD3+CD45+ cytometry (T cell) is represented in control (A) and COG112-treated (C) animals. Frequency of CD4+ and CD8+ T cells is represented in saline control (B) and COG 112-treated (D) mice. Total cell number for each of the specific cell surface markers is calculated and expressed as number per spinal cord (E). […] C57BL/6J mice were first immunized with MOG to create an EAE model. […] One of the pathological hallmarks of MS is extensive demyelination of the myelin sheath surrounding neurons accompanied by massive infiltration of peripheral leukocytes into the brain and the spinal cord, all of which contribute to the clinical manifestations of neurological disability. We further examined the effects of COG peptides on demyelination and leukocyte-influx into the spinal cords by Luxol Fast Blue (LFB) and Eosin staining. […] Panel G is a magnified view of the boxed area in A. […] Single-cell suspensions of spinal cord were stained with anti-CD3, CD4, and CD8 mAbs. As shown in FIGS. 3A & C, the frequency of CD3+ T cells in the spinal cords of mice treated with COG 112 was reduced as compared to vehicle controls on dpi 21.

[2] = test system: oligodendrocyte precursor cells (OPC)/microglia mixed culture; assay: LPS-induced OPC cell death in OPC/microglia mixed culture; assay type: cell-based, rat; conditions: 1 μM, LPS 10 ng/ml; for OPC cell death by LDH and MTT assays: 24 hours
Experimental: FIG. 9. COG 112 protects OPCs from LPS-induced cell death in OPC/microglia mixed culture. LPS (final conc. 10 ng/ml) was added to an OPC/microglia mixed culture with or without 1 μM COG 112. The prefix peptide of COG 112, antennapedia, was used as a negative control. Cells were fixed with 4% formaldehyde and stained with the OPC marker, NG2, and counterstained with hoescht. (A) LPS-treated cultures; (B) LPS+antennapedia (Antp)-treated cultures; (C) LPS+COG 112-treated cultures; (D) Bar graph summarizing the number of NG2+ cells per field in each condition. ** p<0.01.
FIG. 19. COG 345 promotes remyelination in lysolecithin-induced demyelination model of cerebellum slices. Significant demyelination was induced by lysolecithin (0.5 mg/ml) in cerebellar slices. COG 112 or COG 345 (1 μM) was added on day 3 when full demyelination was achieved. 4 days later, the slices were fixed and double stained with myelin marker MBP (green) and Purkinje cell marker calbindin (red). (A) Untreated-slices; (B) lysolecithin-treated slices; (C) COG 112-treated slices after lysolecithin exposure; (D) COG 345-treated slices after lysolecithin exposure. E-F. ApoE analogs protect OPCs from LPS-induced cell death in OPC/microglia mixed culture. OPCs and microglia derived from brain culture of P2 rat pups were plated in 96-well plates in 1:1 ratio. LPS (10 ng/ml) together with 1 μM of the indicated ApoE analogs was added to the cultures. After 24 hours, OPC cell death was quantified by LDH assay (E) and MTT assay (F). Statistical analysis was conducted by one-way ANOVA followed by Dunnett comparison vs. LPS group. * P<0.01, ** P<0.001, n=3.
A primary culture prepared from the brains of P2 Sprague-Dawley rat pups was grown for seven days. Microglia and OPCs were shaken off from the primary culture with an orbital shaker at 150˜200 rpm. The OPCs and microglia were plated in 24-well plates at a 1:1 ratio with 5×10^4 cells per well of each cell type. After 24 hours, LPS (final conc. 10 ng/ml) was added with or without 1 μM COG 112. The prefix peptide of COG 112, antennapedia, was used as a negative control. After incubation for 72 hours, the medium was removed and cells were fixed with 4% formaldehyde and stained with the OPC marker, NG2, and counterstained with hoescht. Five fields from each of the wells were randomly chosen to count the number of NG2-positive cells.
To further assess the ability of the novel ApoE analogs to promote remyelination, the effect of the analogs on OPC survival was assessed in an OPC/microglia mixed culture. OPC and microglia derived from primary culture of P2 rat pup brain were plated on 96-well plates in 1:1 ratio. […] After 24 hours, cell death of OPC was quantified by both LDH and MTT assays.

Compound | maximal severity of disability [1] | progress of the disease (clinical score) [1] | burden of disability (area under curve of clinical score) [1] | demyelination and infiltration of peripheral mononuclear cells in spinal cord [1] | mice exhibiting complete remission [1] [%] | OPC cell death by LDH and MTT assays [2] | CD4+ T cell infiltration into the spinal cord ([1]; dpi 21, vs vehicle) | frequency of CD3+ T cells in the spinal cord ([1]; dpi 21, vs vehicle) | number of CD8+ T cells in the spinal cord ([1]; dpi 21, vs vehicle) | LPS-induced cell death of OPCs (number of NG2-positive cells) ([2]; 72 hours)
CC(=O)N[C@@H](CC(C)C)C(=O)N[C@@H](CCCNC(=N)N)C(=O)N[C@H](C(=O)N[C@@H](CCCNC(=N)N)C(=O)N[C@@H](CC(C)C)C(=O)N[C@@H](C)C(=O)N[C@@H](CO)C(=O)N[C@@H](Cc1c[nH]cn1)C(=O)N[C@@H](CC(C)C)C(=O)N[C@@H](CCCNC(=N)N)C(=O)N[C@@H](CCCCN)C(=O)N[C@@H](CC(C)C)C(=O)N[C@@H](CCCNC(=N)N)C(=O)N[C@@H](CCCCN)C(=O)N[C@@H](CCCNC(=N)N)C(=O)N[C@@H](CC(C)C)C(=O)N[C@@H](CC(C)C)C(N)=O)C(C)C [COG 133] | significantly reduced the maximal severity of disability | significantly slowed the deleterious progress of the disease | significantly reduced the burden of disability | greatly reduced | 50 | – | – | – | – | –
CC(=O)NC(=N)NCCC[C@H](NC(=O)[C@H](CCCCN)NC(=O)[C@H](CCCNC(=N)N)NC(=O)[C@H](CC(C)C)NC(=O)[C@H](CCCCN)NC(=O)[C@H](CCCNC(=N)N)NC(=O)[C@H](CC(C)C)NC(=O)C(C)(C)NC(=O)[C@H](CO)NC(=O)[C@H](C)NC(=O)[C@H](CC(C)C)NC(=O)[C@H](CCCNC(=N)N)NC(=O)[C@@H](NC(=O)[C@H](CCCNC(=N)N)NC(=O)[C@H](CC(C)C)NC(C)=O)C(C)C)C(=O)N[C@@H](CC(C)C)C(=O)N[C@@H](CC(C)C)C(N)=O [COG 345, acetyl-LRVRLAS-Aib-LRKLRK(acetyl-Arg)LL-amide] (Ac-LRVRLAS[Aib]LRKLRKR(Ac)LL-NH2) | – | – | – | – | – | most potent | – | – | – | –
Ac-RQIKIWFQNRRMKWKKCLRVRLASHLRKLRKRLL-NH2 [COG 112] | significantly reduced the maximal severity of disability | significantly slowed the deleterious progress of the disease | significantly reduced the burden of disability | greatly reduced | 71 | most potent | significantly reduced | reduced | no significant difference | significantly reduced LPS-induced cell death of OPCs
